Test: photoluminescence quantum yield (fraction); solvent given as SMILES

Compound: COC(=O)C(Cc1ccc2oc(-c3ccc4c(c3)c3ccccc3n4-c3ccccc3)nc2c1)NC(=O)OC(C)(C)C (centres undefined)
- photoluminescence quantum yield (in C1CCCCC1): 0.76
- photoluminescence quantum yield (in C1CCOC1): 0.84
- photoluminescence quantum yield (in C1COCCO1): 1
- photoluminescence quantum yield (in CC1CCCO1): 0.93
- photoluminescence quantum yield (in CC1COC(=O)O1): 1
- photoluminescence quantum yield (in CC#N): 0.99
- photoluminescence quantum yield (in CC(C)=O): 0.63
- photoluminescence quantum yield (in CC(C)CC(C)(C)C): 0.86
- photoluminescence quantum yield (in CC(C)CO): 1
- photoluminescence quantum yield (in CC(C)O): 1
- photoluminescence quantum yield (in CC(C)OC(C)C): 0.55
- photoluminescence quantum yield (in CC(O)CO): 1
- photoluminescence quantum yield (in CCC(C)CC): 0.59
- photoluminescence quantum yield (in CCCCC): 0.59
- photoluminescence quantum yield (in CCCCCC): 0.58
- photoluminescence quantum yield (in CCCCCCCCC): 0.72
- photoluminescence quantum yield (in CCCCCCCCCC): 0.75
- photoluminescence quantum yield (in CCCCCCCO): 1
- photoluminescence quantum yield (in CCCCCCO): 0.94
- photoluminescence quantum yield (in CCCCCO): 1
- photoluminescence quantum yield (in CCCCO): 1
- photoluminescence quantum yield (in CCO): 1
- photoluminescence quantum yield (in CCOC(C)=O): 0.96
- photoluminescence quantum yield (in CCOCC): 0.68
- photoluminescence quantum yield (in CN(C)C=O): 1
- photoluminescence quantum yield (in CO): 0.99
- photoluminescence quantum yield (in COCCOC): 0.7
- photoluminescence quantum yield (in CS(C)=O): 0.88
- photoluminescence quantum yield (in Cc1ccccc1): 0.78
- photoluminescence quantum yield (in Cc1ccccc1C): 0.92
- photoluminescence quantum yield (in ClC(Cl)Cl): 0.93
- photoluminescence quantum yield (in ClCCl): 0.94
- photoluminescence quantum yield (in NC=O): 0.82
- photoluminescence quantum yield (in OC1CCCCC1): 0.95
- photoluminescence quantum yield (in OCCO): 1
- photoluminescence quantum yield (in c1ccccc1): 0.97

Compound: CCOC(=O)c1[nH]c(C)c(/C=C/c2c(I)c(C)c3n2[B-](F)(F)[N+]2=C(C)C(I)=C(C)C2=C3c2cc(OC)cc(OC)c2)c1C
- photoluminescence quantum yield (in C1CCOC1): 0.22
- photoluminescence quantum yield (in CS(C)=O): 0.23
- photoluminescence quantum yield (in ClCCl): 0.21

Compound: COc1ccc(/C=C/C2=C3CCc4ccccc4C3=[O+][B-](F)(F)O2)cc1
- photoluminescence quantum yield (in ClCCl): 0.04

Compound: CC(C)[Si]1(C(C)C)c2cc(C#N)ccc2-c2ccc(N(C)C)cc21
- photoluminescence quantum yield (in C1CCCCC1): 0.6
- photoluminescence quantum yield (in CC#N): 0.65
- photoluminescence quantum yield (in CCO): 0.74
- photoluminescence quantum yield (in CCOCC): 0.66
- photoluminescence quantum yield (in CS(C)=O): 0.51
- photoluminescence quantum yield (in ClCCl): 0.79
- photoluminescence quantum yield (in c1ccccc1): 0.62

Compound: CCCCCCOc1ccc2oc3c(c2c1)=CC1=C(c2ccccc2C)c2cc4c5cc(OCCCCCC)ccc5oc4n2[B-](F)(F)[N+]=31
- photoluminescence quantum yield (in C1CCCCC1): 0.96
- photoluminescence quantum yield (in CCOC(C)=O): 0.73
- photoluminescence quantum yield (in CO): 0.29

Compound: c1ccc(-c2nc(-c3ccc(-c4cccs4)s3)[nH]c2-c2ccccc2)cc1
- photoluminescence quantum yield (in CC#N): 0.24

Compound: CC1(C)C(/C=C/C2=C(Cl)C(=C/C=C3/N(CCCS(=O)(=O)[O-])c4ccccc4C3(C)C)/CCC2)=[N+](CCCS(=O)(=O)[O-])c2ccccc21
- photoluminescence quantum yield (in CO): 0.05

Compound: CCOC(=O)c1c2c3c(ccc(C)c3c3cc4c(cc13)[Si](C)(C)O[Si]4(C)C)N(C)C2=O
- photoluminescence quantum yield (in CC#N): 0.4

Compound: Cc1cccn2c1cc1c3ccccc3nc(-c3ccc(Cl)o3)c12
- photoluminescence quantum yield (in CS(C)=O): 0.31

Compound: COc1ccc2ncccc2c1
- photoluminescence quantum yield (in CC#N): 0.071
- photoluminescence quantum yield (in CCCC#N): 0.075
- photoluminescence quantum yield (in Cc1ccccc1): 0.014

Compound: COc1ccc(-c2csc(/C(C#N)=C/c3ccccc3Cl)n2)cc1
- photoluminescence quantum yield (in CC#N): 0.062

Compound: CC1(C)C(/C=C/C=C/C=C/C=C2/N(CCCCCC(=O)O)c3ccc(S(=O)(=O)[O-])cc3C2(C)C)=[N+](CCCCCC(=O)O)c2ccc(S(=O)(=O)[O-])cc21
- photoluminescence quantum yield (in CO): 0.62
- photoluminescence quantum yield (in O): 0.28

Compound: c1ccc(-p2c3ccccc3c3sc4ccccc4c32)cc1 (centres undefined)
- photoluminescence quantum yield (in ClCCl): 0.24

Compound: CCn1c2ccccc2c2cc(C#Cc3cc(C#Cc4ccc5c(c4)c4ccccc4n5CC)nc(SC)n3)ccc21
- photoluminescence quantum yield (in C1CCOC1): 0.61
- photoluminescence quantum yield (in CCOC(C)=O): 0.62
- photoluminescence quantum yield (in CN(C)C=O): 0.56
- photoluminescence quantum yield (in Cc1ccccc1): 0.53
- photoluminescence quantum yield (in ClCCl): 0.64

Compound: CCOC(=O)CSc1nc(C)c(C)c(C#N)c1C#N
- photoluminescence quantum yield (in c1ccccc1): 0.035

Compound: COc1ccc2n1[B-](F)(F)[N+]1=CC=CC1=C2c1ccccc1
- photoluminescence quantum yield (in CC#N): 0.02
- photoluminescence quantum yield (in CCCCCC): 0.01
- photoluminescence quantum yield (in CCOC(C)=O): 0.01
- photoluminescence quantum yield (in CO): 0.02
- photoluminescence quantum yield (in ClCCl): 0.02

Compound: C(S/C=C/c1ccc(/C=C/SC=C2CCCCCCC2)cc1)=C1CCCCCCC1
- photoluminescence quantum yield (in ClCCl): 0.018

Compound: CCCCCCCCc1ccc(-c2c3cc(-c4cc(CCCCCCCC)c(-c5ccc(-c6sc(/C=C7\SC(SCC)=NC7=O)cc6CCCCCCCC)s5)s4)sc3c(-c3ccc(CCCCCCCC)s3)c3cc(-c4cc(CCCCCCCC)c(-c5ccc(-c6sc(/C=C7\SC(SCC)=NC7=O)cc6CCCCCCCC)s5)s4)sc23)s1
- photoluminescence quantum yield (in C1CCOC1): 0.078
- photoluminescence quantum yield (in ClC(Cl)Cl): 0.037

Compound: FC(F)(F)c1ccc2oc3nc4oc5ccc(N(c6ccccc6)c6ccccc6)cc5c4cc3c2c1
- photoluminescence quantum yield (in ClC(Cl)Cl): 0.099

Compound: O=c1oc2ccccc2cc1-c1cc2ccccc2o1
- photoluminescence quantum yield (in CC#N): 0.75
- photoluminescence quantum yield (in CCOC(C)=O): 0.79
- photoluminescence quantum yield (in CS(C)=O): 0.99
- photoluminescence quantum yield (in Cc1ccccc1): 0.88
- photoluminescence quantum yield (in O): 0.15

Compound: c1cc2c3c(c1)-c1cccc4ccn(c14)B3n1ccc3cccc-2c31
- photoluminescence quantum yield (in C1CCOC1): 0.65

Compound: O=C1[C@@H]2[C@H](C(=O)N1c1cccc3cc4ccccc4cc13)[C@@H]1C=C[C@H]2C1
- photoluminescence quantum yield (in ClC(Cl)Cl): 0.26

Compound: NCCCCCCCCCCCCN1C(=O)c2ccc3c4ccc5c6c(ccc(c7ccc(c2c37)C1=O)c64)C(=O)N(CCCCCCCCCCCCN)C5=O
- photoluminescence quantum yield (in CN(C)C=O): 0.83

Compound: CC(C)c1cccc(C(C)C)c1N1C(=O)c2ccc3c(-c4ccccc4)c4c5ccc6c7c(ccc(c(-c8ccccc8)c4c4ccc(c2c34)C1=O)c75)C(=O)N(c1c(C(C)C)cccc1C(C)C)C6=O
- photoluminescence quantum yield (in ClCCl): 0.24

Compound: N#Cc1ccc(C#Cc2ncc(-c3ccccc3)o2)cc1
- photoluminescence quantum yield (in ClCCl): 0.28

Compound: CCC1(CC)c2cc(C=O)ccc2-c2ccc(N(C)C)cc21
- photoluminescence quantum yield (in C1CCCCC1): 0.02
- photoluminescence quantum yield (in CC#N): 0.81
- photoluminescence quantum yield (in CCO): 0.64
- photoluminescence quantum yield (in CCOCC): 0.71
- photoluminescence quantum yield (in CS(C)=O): 0.92
- photoluminescence quantum yield (in ClCCl): 0.91
- photoluminescence quantum yield (in c1ccccc1): 0.82

Compound: CN(C)c1ccc2[c](c1)[Sn]([CH3])([CH3])[C]1=CC(=[N+](C)C)C=CC1=C2
- photoluminescence quantum yield (in O): 0.43

Compound: c1ccc2c3c(ccc2c1)-c1cccc2cc4ccccc4c-3c12
- photoluminescence quantum yield (in CCCCCCC): 0.00078

Compound: c1ccc(-c2nn(-c3ccccc3)c3nc4ccc(N(c5ccccc5)c5cccc6ccccc56)cc4cc23)cc1
- photoluminescence quantum yield (in C1CCCCC1): 0.57
- photoluminescence quantum yield (in C1CCOC1): 0.57
- photoluminescence quantum yield (in CC#N): 0.41
- photoluminescence quantum yield (in CC(C)=O): 0.53
- photoluminescence quantum yield (in CCCCCl): 0.56
- photoluminescence quantum yield (in CCCCOCCCC): 0.56
- photoluminescence quantum yield (in CN(C)C=O): 0.47

Compound: Oc1ccc(C2=N[N+]3=Cc4c(ccc5ccccc45)O[B-]3(c3ccc([B-]45OC(c6ccc(O)cc6)=N[N+]4=Cc4c(ccc6ccccc46)O5)cc3)O2)cc1 (centres undefined)
- photoluminescence quantum yield (in C1CCOC1): 0.01

Compound: CCOC(=O)c1sc2nc(C)c(CC)c(C#N)c2c1N
- photoluminescence quantum yield (in c1ccccc1): 0.054

Compound: CCCCN1C(=O)c2cc(Oc3ccc(C(C)(C)C)cc3)c3c4c(Oc5ccc(C(C)(C)C)cc5)cc5c6c(cc(Oc7ccc(C(C)(C)C)cc7)c(c7c(Oc8ccc(C(C)(C)C)cc8)cc(c2c37)C1=O)c64)C(=O)N(CCCC)C5=O
- photoluminescence quantum yield (in C1CCOC1): 0.82
- photoluminescence quantum yield (in Cc1ccccc1): 0.811
- photoluminescence quantum yield (in ClC(Cl)Cl): 0.83
- photoluminescence quantum yield (in ClCCl): 0.802

Compound: C(=C\c1ccc(N(c2ccccc2)c2ccccc2)cc1)/c1ccc(-c2nc(-c3ccc(/C=C/c4ccc(N(c5ccccc5)c5ccccc5)cc4)cc3)nc(-c3ccc(/C=C/c4ccc(N(c5ccccc5)c5ccccc5)cc4)cc3)n2)cc1
- photoluminescence quantum yield (in ClC(Cl)Cl): 0.27

Reference: the Deep4Chem optical property database
